Columns and labels:
[1] = system: lambsquarters; assay: Test B preemergence/postemergence greenhouse plant response rating 0 to 10; assay type: in vivo, Chenopodium album; details: 0 to 10 scale
Outline: (§1)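 Planted seeds are treated preemergence with compound dissolved in a non-phytotoxic solvent, while postemergence applications go onto plants of two to eighteen cm. Plants stay in the greenhouse twelve to sixteen days and are then rated visually relative to controls.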

[2] = system: rice; assay: as above; assay type: in vivo, Oryza sativa; details: 0 to 10 scale
Outline: as §1

[3] = system: soybean; assay: as above; assay type: in vivo, Glycine max; details: 0 to 10 scale
Outline: as §1

[4] = system: wheat; assay: as above; assay type: in vivo, Triticum aestivum; details: 0 to 10 scale
Outline: as §1

[5] = system: wild buckwheat; assay: as above; assay type: in vivo, Polygonum convolvulus; details: 0 to 10 scale
Outline: as §1

[6] = system: wild oat; assay: as above; assay type: in vivo, Avena fatua; details: 0 to 10 scale
Outline: as §1

[7] = system: blackgrass; assay: Test C preemergence/postemergence greenhouse plant response rating 0 to 100; assay type: in vivo, Alopecurus myosuroides; details: POSTEMERGENCE; for Plant response rating, Blackgrass: 0 to 100 scale
Outline: (§2)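 Compounds in non-phytotoxic solvent applied preemergence to sandy loam one day after planting, postemergence at the 1–4 leaf stage, or to ~2.5 cm floodwater over silt loam.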

[8] = system: downy brome; assay: as above; assay type: in vivo, Bromus tectorum; details: POSTEMERGENCE; for Plant response rating Downy Brome: 0 to 100 scale
Outline: as §2

[9] = system: sorghum; assay: as above; assay type: in vivo, Sorghum bicolor; details: POSTEMERGENCE; for Plant response rating, Sorghum: 0 to 100 scale
Outline: as §2

[10] = system: sugar beet; assay: as above; assay type: in vivo, Beta vulgaris; details: POSTEMERGENCE; for Plant response rating, Sugar beet: 0 to 100 scale
Outline: as §2

[11] = system: wild buckwheat; assay: as above; assay type: in vivo, Polygonum convolvulus; details: POSTEMERGENCE; for Plant response rating, Wild buckwheat: 0 to 100 scale
Outline: as §2

[12] = system: barnyardgrass; assay: Test C flood test plant response rating 0 to 100; assay type: in vivo, Echinochloa crus-galli; details: for Plant response rating (0 to 100), Barnyardgrass: under POSTEMERGENCE head (flood test species); for Plant response rating, Barnyardgrass: flood test species listed under POSTEMERGENCE, 0 to 100 scale
Outline: as §2

[13] = system: peanut; assay: Test G preemergence/postemergence greenhouse plant response rating 0 to 100; assay type: in vivo, Arachis hypoagaea; details: 0 to 100 scale
Source text: (§3) Seeds, rhizomes, or plant parts of alfalfa (Medicago ativa), annual bluegrass (Poa annua), bermudagrass (Cynodon dactylon), broadleaf signalgrass (Brachiaria plantaginea), common purslane (Portulaca oleracea), common ragweed (Ambrosia elatior), […] (Paspalum dilatatum), goosegrass (Eleusine indica), guineagrass (Panicum maximum), […] exaltata), johnsongrass (Sorghum halepense), large crabgrass (Digitaria sanguinalis), peanut (Arachis hypoagaea), pitted morningglory (Ipomoea lacunosa), purple nutsedge (Cyperus rotundus), sandbur (Cenchrus echinatus), smooth crabgrass (Digitaria ischaemum) and yellow nutsedge (Cyperus esculentus) were planted into greenhouse pots containing greenhouse planting medium. Each pot contained only one plant species. The test compound was dissolved in a non-phytotoxic solvent and applied preemergence and/or postemergence to the plants. Preemergence applications were made within one day of planting the seeds or plant parts. Postemergence applications were applied when the plants were in the two to four leaf stage (three to twenty cm). Test chemicals were dissolved in a non-phytotoxic solvent and applied preemergence and postemergence to the plants. Untreated control plants and treated plants were placed in the greenhouse and visually evaluated for injury at 13 to 21 days after herbicide application. […] A dash (-) response indicates no test result.

[14] = system: yellow nutsedge; assay: as above; assay type: in vivo, Cyperus esculentus; details: Rate 125 g/ha, 0 to 100 scale
Source text: as §3

In the case of `COC(=O)C(C)Oc1cc(-c2nn3c(c2Cl)CCCC3)c(F)cc1Cl` (centres unmarked) [Compound 28], the “Plant response rating, Lambsquarter” value ([1]; POSTEMERGENCE, Rate 50 g/ha) is reported as 10, the “Plant response rating, Lambsquarter” value ([1]; POSTEMERGENCE, Rate 200 g/ha) is reported as 10 and the “Plant response rating, Lambsquarter” value ([1]; PREEMERGENCE, Rate 50 g/ha) is reported as 10. The “Plant response rating, Lambsquarter” value ([1]; Rate 200 g/ha, PREEMERGENCE) was 10, the “Plant response rating, Rice” value ([2]; POSTEMERGENCE, Rate 50 g/ha) was 5 and the “Plant response rating, Rice” value ([2]; POSTEMERGENCE, Rate 200 g/ha) was 7. For the same compound, the “Plant response rating, Rice” value ([2]; PREEMERGENCE, Rate 50 g/ha) was 0, the “Plant response rating, Rice” value ([2]; Rate 200 g/ha, PREEMERGENCE) was 2 and the “Plant response rating, Soybean” value ([3]; POSTEMERGENCE, Rate 50 g/ha) was 8. The “Plant response rating, Soybean” value ([3]; POSTEMERGENCE, Rate 200 g/ha) was 9, the “Plant response rating, Soybean” value ([3]; PREEMERGENCE, Rate 50 g/ha) was 0 and the “Plant response rating, Soybean” value ([3]; Rate 200 g/ha, PREEMERGENCE) was 0. The “Plant response rating, Wheat” value ([4]; POSTEMERGENCE, Rate 50 g/ha) was 7, the “Plant response rating, Wheat” value ([4]; POSTEMERGENCE, Rate 200 g/ha) was 9 and the “Plant response rating, Wheat” value ([4]; PREEMERGENCE, Rate 50 g/ha) was 0. The “Plant response rating, Wheat” value ([4]; Rate 200 g/ha, PREEMERGENCE) was 2, the “Plant response rating, Wild buckwheat” value ([5]; POSTEMERGENCE, Rate 50 g/ha) was 9 and the “Plant response rating, Wild buckwheat” value ([5]; POSTEMERGENCE, Rate 200 g/ha) was 10. The “Plant response rating, Wild buckwheat” value ([5]; PREEMERGENCE, Rate 50 g/ha) was 7, the “Plant response rating, Wild buckwheat” value ([5]; Rate 200 g/ha, PREEMERGENCE) was 7 and the “Plant response rating, Wild oat” value ([6]; POSTEMERGENCE, Rate 50 g/ha) was 5. The “Plant response rating, Wild oat” value ([6]; POSTEMERGENCE, Rate 200 g/ha) was 6, the “Plant response rating, Wild oat” value ([6]; Rate 200 g/ha, PREEMERGENCE) was 2 and the “Plant response rating, Blackgrass” value ([7]; 62 g/ha) was 50. The “Plant response rating, Blackgrass” value ([7]; 250 g/ha) was 70, the “Plant response rating (0 to 100), Blackgrass” value ([7]; Rate 4 g/ha) was 20 and the “Plant response rating (0 to 100), Blackgrass” value ([7]; Rate 16 g/ha) was 30. For the same compound, the “Plant response rating Downy Brome” value ([8]; 62 g/ha) was 60, the “Plant response rating Downy Brome” value ([8]; 250 g/ha) was 100 and the “Plant response rating (0 to 100), Downy Brome” value ([8]; Rate 4 g/ha) was 10. The “Plant response rating (0 to 100), Downy Brome” value ([8]; Rate 16 g/ha) was 40, the “Plant response rating, Sorghum” value ([9]; 62 g/ha) was 100 and the “Plant response rating, Sorghum” value ([9]; 250 g/ha) was 100. The “Plant response rating (0 to 100), Sorghum” value ([9]; Rate 4 g/ha) was 20, the “Plant response rating (0 to 100), Sorghum” value ([9]; Rate 16 g/ha) was 50 and the “Plant response rating, Sugar beet” value ([10]; 62 g/ha) was 100. The “Plant response rating, Sugar beet” value ([10]; 250 g/ha) was 100, the “Plant response rating (0 to 100), Sugar beet” value ([10]; Rate 4 g/ha) was 100 and the “Plant response rating (0 to 100), Sugar beet” value ([10]; Rate 16 g/ha) was 100. For the same compound, the “Plant response rating, Wild buckwheat” value ([11]; 62 g/ha) was 70, the “Plant response rating, Wild buckwheat” value ([11]; 250 g/ha) was 90 and the “Plant response rating (0 to 100), Wild buckwheat” value ([11]; Rate 4 g/ha) was 30. The “Plant response rating (0 to 100), Wild buckwheat” value ([11]; Rate 16 g/ha) was 60, the “Plant response rating (0 to 100), Barnyardgrass” value ([12]; Rate 4 g/ha) was 35 and the “Plant response rating (0 to 100), Barnyardgrass” value ([12]; Rate 16 g/ha) was 50. For the same compound, the “Plant response rating, Barnyardgrass” value ([12]; 62 g/ha) was 95, the “Plant response rating, Barnyardgrass” value ([12]; 250 g/ha) was 100 and the “Plant response rating, Peanuts” value ([13]; POSTEMERGENCE, Rate 125 g/ha) was 0. For the same compound, the “Plant response rating, Peanuts” value ([13]; POSTEMERGENCE, Rate 250 g/ha) was 0, the “Plant response rating, Peanuts” value ([13]; PREEMERGENCE, Rate 125 g/ha) was 0 and the “Plant response rating, Peanuts” value ([13]; PREEMERGENCE, Rate 250 g/ha) was 0. The “Plant response rating, Yellow Nutsedge” value ([14]; POSTEMERGENCE) was 0 and the “Plant response rating, Yellow Nutsedge” value ([14]; PREEMERGENCE) was 0.

From patent publication US6358885B1, “Substituted phenylheterocyclic herbicides” (Mississippi State University, priority 1992, dated 2002)
